# Results published in US6867207B2, “IL-5 inhibiting 6-azauracil derivatives” (Janssen Pharmaceutica N.V., priority 1997, dated 2005).
# Test system: IL-5 production
# Assay: In vitro inhibition of IL-5 production in human blood (phytohemagglutinin-stimulated whole blood, ELISA);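 note: values marked with an asterisk were tested at 10 µM and unmarked values at 1 µM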
# Format: cell-based
# Conditions: test dose 1×10^−6 M, 48 hours
# In short: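 Percent inhibition of IL-5, quantified by ELISA in cell-free supernatants, is given at a single dose of 1×10^−6 M (or 1×10^−5 M). Threefold-diluted human whole blood from healthy men received compound for 60 min at 37° C before 48 h PHA stimulation at 2 μg/mL.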
row,SMILES,% inh. (percentage inhibition of IL-5 production) [%]
1,O=c1cnn(-c2cc(Cl)c(C(Sc3nccc(-c4ccccc4)n3)c3ccc(Cl)c(C(F)(F)F)c3)c(Cl)c2)c(=O)[nH]1 (racemic) [Compound 342],93
2,O=c1cnn(-c2cc(Cl)c(C(Sc3nc4ccc([N+](=O)[O-])cc4s3)c3ccc(Cl)c(C(F)(F)F)c3)c(Cl)c2)c(=O)[nH]1 (centres unmarked) [Compound 388],90
3,CN(C)C(=O)CCc1sc(C(c2ccc(Cl)cc2)c2c(Cl)cc(-n3ncc(=O)[nH]c3=O)cc2Cl)nc1-c1ccccc1 (racemic) [Comp 281],91
4,Nc1ccc2nc(SC(c3ccc(Cl)c(C(F)(F)F)c3)c3c(Cl)cc(-n4ncc(=O)[nH]c4=O)cc3Cl)sc2c1 (centres unmarked) [Compound 389],91
5,O=c1cnn(-c2cc(Cl)c(C(c3ccc(Cl)cc3)c3nc(-c4cccc(Cl)c4Cl)cs3)c(Cl)c2)c(=O)[nH]1 (racemic) [Comp 252],80
6,COc1cccc(-c2csc(C(c3ccc(Cl)cc3)c3c(Cl)cc(-n4ncc(=O)[nH]c4=O)cc3Cl)n2)c1 (racemic) [Comp 24],74
7,Cc1nc(-c2ccccc2Cl)c(C(c2ccc(Cl)cc2)c2ccc(-n3ncc(=O)[nH]c3=O)cc2Cl)s1 (racemic) [Compound 139],60
8,CN1CCC(C(=O)Cc2sc(C(c3ccc(Cl)cc3)c3c(Cl)cc(-n4ncc(=O)[nH]c4=O)cc3Cl)nc2-c2ccccc2)CC1 (racemic) [Comp 283],93
9,COc1cc(C)nc(NC(c2ccc(Cl)cc2)c2ccc(-n3ncc(=O)[nH]c3=O)cc2Cl)n1 (racemic) [Compound 42],57
10,CN(Cc1ccccc1)Cc1sc(C(c2ccc(Cl)cc2)c2c(Cl)cc(-n3ncc(=O)[nH]c3=O)cc2Cl)nc1-c1ccccc1 (racemic) [Comp 297],90
11,"O=c1cnn(-c2cc(Cl)c(C(c3ccc(Cl)cc3)c3csc(-c4ccccc4)n3)c(Cl)c2)c(=O)[nH]1 (racemic) [Compound 363, (±)-2-[3,5-dichloro-4-[(4-chlorophenyl)(2-phenyl-4-thiazoyl)methyl]phenyl]-1,2,4-triazine-3,5(2H,4H)-dione]",91
12,O=c1cnn(-c2cc(Cl)c(C(c3ccc(Cl)cc3)c3nnc(COc4ccccc4Cl)o3)c(Cl)c2)c(=O)[nH]1 (racemic) [Compound 175],58
13,Cc1sc(SC(c2ccc(Cl)c(C(F)(F)F)c2)c2c(Cl)cc(-n3ncc(=O)[nH]c3=O)cc2Cl)nc1-c1ccccc1 (centres unmarked) [Compound 392],87
14,O=c1cnn(-c2cc(Cl)c(C(c3ccc(Cl)cc3)c3nc(-c4cc(Cl)ccc4Cl)cs3)c(Cl)c2)c(=O)[nH]1 (racemic) [Comp 257],82
15,O=c1cnn(-c2cc(Cl)c(C(c3ccc(Cl)cc3)c3nc(-c4ccccc4)c(CN4CCC(N5CCCCC5)CC4)s3)c(Cl)c2)c(=O)[nH]1 (racemic) [Comp 321],92
16,Cc1ccsc1-c1nnc(C(c2ccc(Cl)cc2)c2c(Cl)cc(-n3ncc(=O)[nH]c3=O)cc2Cl)o1 (racemic) [Compound 203],82
17,CN(C)CCN(C)C(=O)Cc1sc(C(c2ccc(Cl)cc2)c2c(Cl)cc(-n3ncc(=O)[nH]c3=O)cc2Cl)nc1-c1ccccc1 (racemic) [Comp 335],52
18,CN1CCN(Cc2sc(C(c3ccc(Cl)cc3)c3c(Cl)cc(-n4ncc(=O)[nH]c4=O)cc3Cl)nc2-c2ccccc2)CC1 (racemic) [Comp 302],87
19,Cc1cc(-n2ncc(=O)[nH]c2=O)cc(C)c1C(c1ccc(Cl)c(Cl)c1)c1nc(-c2ccccc2)cs1 (racemic) [Comp 270],86
20,O=c1cnn(-c2ccc(C(Sc3nc4ccccc4s3)c3ccc(Cl)cc3)c(Cl)c2)c(=O)[nH]1 (racemic) [Compound 77],65
21,O=c1cnn(-c2cc(Cl)c(C(Sc3ccncn3)c3ccc(Cl)cc3)c(Cl)c2)c(=O)[nH]1 (racemic) [Compound 409],88

row,SMILES,% inh. (percentage inhibition of IL-5 production) [%]
1,O=c1cnn(-c2cc(Cl)c(C(c3ccc(Cl)cc3)c3nc(-c4cc(F)cc(F)c4)cs3)c(Cl)c2)c(=O)[nH]1 (racemic) [Comp 286],86
2,CN1CCCC(c2nnc(C(c3ccc(Cl)cc3)c3c(Cl)cc(-n4ncc(=O)[nH]c4=O)cc3Cl)o2)C1 (mixture of isomers) [Compound 196],35
3,CN1CCC(c2nnc(C(c3ccc(Cl)cc3)c3c(Cl)cc(-n4ncc(=O)[nH]c4=O)cc3Cl)o2)CC1 (racemic) [Compound 195],7
4,Cc1nc(-c2ccc(Cl)cc2)c(C(c2ccc(Cl)cc2)c2ccc(-n3ncc(=O)[nH]c3=O)cc2Cl)s1 (racemic) [Compound 149],89
5,CCOC(=O)c1sc(C(c2ccc(Cl)cc2)c2c(Cl)cc(-n3ncc(=O)[nH]c3=O)cc2Cl)nc1-c1ccccc1Cl (racemic) [Comp 274],89
6,"O=c1cnn(-c2cc(Cl)c(C(c3ccc(Cl)cc3)c3nc(-c4ccccc4)c(CNC(=S)Nc4ccccc4)s3)c(Cl)c2)c(=O)[nH]1 (racemic) [Compound 331, (±)-N-[[2-[(4-chlorophenyl)[2,6-dichloro-(4,5-dihydro-3,5-dioxo-1,2,4-triazin-2(3H)-yl)phenyl]methyl]4-phenyl-5-thiazolyl]methyl]-N′-phenyl-thiourea]",95
7,Cn1ccnc1C(c1ccc(Cl)cc1)c1c(Cl)cc(-n2ncc(=O)[nH]c2=O)cc1Cl (racemic) [Comp 109],35
8,O=c1cnn(-c2cc(Cl)c(C(SCc3cnccn3)c3ccc(Cl)cc3)c(Cl)c2)c(=O)[nH]1 (racemic) [Compound 407],71
9,O=c1cnn(-c2cc(Cl)c(C(Sc3nc4cccnc4s3)c3ccc(Cl)c(C(F)(F)F)c3)c(Cl)c2)c(=O)[nH]1 (centres unmarked) [Compound 382],95
10,Cc1ccc(-c2nnc(C(c3ccc(Cl)cc3)c3c(Cl)cc(-n4ncc(=O)[nH]c4=O)cc3Cl)o2)cc1 (racemic) [Compound 177],69
11,O=c1cnn(-c2cc(Cl)c(C(Sc3nccc(NC(CO)CO)n3)c3ccc(Cl)cc3)c(Cl)c2)c(=O)[nH]1 (racemic) [Compound 361],28
12,Cc1sc(C(c2ccc(Cl)cc2)c2c(Cl)cc(-n3ncc(=O)[nH]c3=O)cc2Cl)nc1-c1ccccc1Cl (racemic) [Comp 272],87
13,O=c1cnn(-c2cc(Cl)c(C(c3ccc(Cl)cc3)c3nc(-c4cccc(Br)c4)cs3)c(Cl)c2)c(=O)[nH]1 (racemic) [Comp 250],84
14,O=c1cnn(-c2cc(Cl)c(C(c3ccc(Cl)cc3)c3nc4ccccc4s3)c(Cl)c2)c(=O)[nH]1 (centres unmarked) [Comp 421],86
15,Cc1ccoc1-c1nnc(C(c2ccc(Cl)cc2)c2c(Cl)cc(-n3ncc(=O)[nH]c3=O)cc2Cl)o1 (racemic) [Compound 207],94
16,O=c1cnn(-c2cc(Cl)c(C(c3ccc(Cl)cc3)c3nc(-c4ccccc4)c(CN4CCOCC4)s3)c(Cl)c2)c(=O)[nH]1 (racemic) [Comp 292],94
17,O.O=c1cnn(-c2cc(Cl)c(C(c3ccc(Cl)cc3)c3nnc(-c4ccncc4)o3)c(Cl)c2)c(=O)[nH]1 (racemic) [Compound 158],92
18,O=c1cnn(-c2ccc(C(Sc3ccccn3)c3ccc(Cl)c(C(F)(F)F)c3)c(Cl)c2)c(=O)[nH]1 (centres unmarked) [Compound 86],84
19,CN1CCN(c2ccc(-c3nnc(C(c4ccc(Cl)cc4)c4c(Cl)cc(-n5ncc(=O)[nH]c5=O)cc4Cl)o3)cc2)CC1 (racemic) [Compound 199],43
20,O=c1cnn(-c2ccc(C(c3ccc(Cl)cc3)c3sc(-c4ccccc4)nc3-c3ccccc3Cl)c(Cl)c2)c(=O)[nH]1 (racemic) [Compound 144],40
21,CNCc1sc(C(c2ccc(Cl)cc2)c2c(Cl)cc(-n3ncc(=O)[nH]c3=O)cc2Cl)nc1-c1ccccc1.Cl.O.O.O (racemic) [Comp 296],92

# Same assay, conditions: test dose 1×10^−6 M, 48 hours, read-out: % inh. (percentage inhibition of IL-5 production)
row,SMILES,inhibition at 1 µM [%]
1,"[N-]=[N+]=Nc1cccc(-c2nnc(C(c3ccc(Cl)cc3)c3c(Cl)cc(-n4ncc(=O)[nH]c4=O)cc3Cl)o2)c1 (racemic) [Compound 194, (±)-2-[4-[[5-(3-azidophenyl)-1,3,4-oxadiazol-2-yl](4-chlorophenyl)methyl]-3,5-dichlorophenyl]-1,2,4-triazine-3,5(2H,4H)-dione]",83
2,"O=c1cnn(-c2ccc(C(NCCO)c3ccc(Cl)cc3)c(Cl)c2)c(=O)[nH]1 (racemic) [Compound 51, (±)-2-[3-chloro-4-[(4-chlorophenyl)[(2-hydroxyethyl)amino]methyl]phenyl]-1,2,4-triazin-3,5(2H,4H)-dione]",10
3,"O=c1cnn(-c2ccc(C(Nc3nc4cccnc4s3)c3ccc(Cl)cc3)c(Cl)c2)c(=O)[nH]1 (racemic) [Compound 410, (±)-2-[3-chloro-4-[(4-chlorophenyl)[(thiazolo[5,4-b]pyridin-2-yl)amino]methyl]phenyl]-1,2,4-triazine-3,5(2H,4H)-dione]",15
4,"O=c1cnn(-c2ccc(C(Nc3ncccn3)c3ccc(Cl)cc3)c(Cl)c2)c(=O)[nH]1 (racemic) [Compound 49, (±)-2-[3-chloro-4-[(4-chlorophenyl)(2-pyrimidinylamino)methyl]phenyl]-1,2,4-triazine-3,5(2H,4H)-dione]",61
5,"Cn1ccnc1C(c1ccc(Cl)cc1)c1ccc(-n2ncc(=O)[nH]c2=O)cc1Cl (racemic) [Compound 123, (±)-2-[3-chloro-4-[(4-chlorophenyl)(1-methyl-1H-imidazol-2-yl)methyl]phenyl]-1,2,4-triazine-3,5(2H,4H)-dione]",13
